#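 The compound was tested at five concentrations on cells cultured in 96-well plates, with a 48-hour exposure period. GI50 = concentration required for 50% inhibition of growth. TGI: total growth inhibition.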
# Columns and labels:
# Assay in all cases: NCI anticancer screen, dose series, 48 h
# NCI-H226 lung = tested on: NCI-H226 lung
# NCI/ADR-RES ovarian = tested on: NCI/ADR-RES ovarian
# U251 CNS = tested on: U251 CNS
# HT29 colon = tested on: HT29 colon
# SNB-75 CNS = tested on: SNB-75 CNS
# HCC-2998 colon = tested on: HCC-2998 colon
# HCT-116 colon = tested on: HCT-116 colon
# ACHN renal = tested on: ACHN renal
# HS 578T breast = tested on: HS 578T breast
# T-47D breast = tested on: T-47D breast
SMILES,GI50 (NCI-H226 lung) [µM],GI50 (NCI/ADR-RES ovarian) [µM],TGI (NCI/ADR-RES ovarian) [µM],GI50 (U251 CNS) [µM],TGI (U251 CNS) [µM],GI50 (HT29 colon) [µM],TGI (HT29 colon) [µM],GI50 (SNB-75 CNS) [µM],TGI (SNB-75 CNS) [µM],GI50 (HCC-2998 colon) [µM],TGI (HCC-2998 colon) [µM],GI50 (HCT-116 colon) [µM],TGI (HCT-116 colon) [µM],GI50 (ACHN renal) [µM],TGI (ACHN renal) [µM],GI50 (HS 578T breast) [µM],TGI (HS 578T breast) [µM],TGI (NCI-H226 lung) [µM],GI50 (T-47D breast) [µM],TGI (T-47D breast) [µM]
CC(=O)O[C@H](C[C@H](C(C)C)N(C)C(=O)[C@@H](NC(=O)[C@H]1CCCCN1C)C(C)(C)C)c1nc(C(=O)N[C@@H](Cc2ccccc2)C[C@H](C)C(=O)O)cs1,0.0348,0.00524,> 25,< 0.0025,> 25,< 0.0025,> 25,< 0.0025,> 25,< 0.0025,> 8.5,< 0.0025,> 25,< 0.0025,> 25,< 0.0025,> 23.6,,,
Cc1ccc(SCC(O)=C2C(=O)CCCC2=O)cc1,,,,,> 100,,> 100,,> 100,,,,> 100,,> 100,,,> 100,,
C(#Cc1ccccc1C#Cc1ccccn1)c1ccccn1,16.6,5.45,29.4,11.5,25.3,30.3,> 100,18.5,42.6,4.77,14.5,26.4,> 100,15.6,29.6,,,37.9,19.4,46.3
CC(=O)Nc1cc2cc(NS(=O)(=O)c3cc(C(F)(F)F)cc(C(F)(F)F)c3)ccc2oc1=O,,,> 100,,> 100,,> 100,,,,> 100,,> 100,,> 100,,> 100,> 100,,> 100
O=C(O)Cc1cc(=O)[nH]c2c1C(=O)CCC2,,,,,> 100,,> 100,,,,> 100,,,,> 100,,,> 100,,
C=C(C)[C@@H]1CC[C@]2(C)[C@H](CC=C3[C@@H]4[C@H](C)[C@@H](C)CC[C@]4(CO)CC[C@]32C)[C@@]1(C)CCCN,6.72,0.986,2.17,,,0.99,2.04,0.848,3.62,0.873,1.62,0.807,1.54,1.42,3.4,0.994,2.23,18.3,1.51,5.15
COc1cc2c3c(c1OC)Oc1ccc(cc1)CC1c4c(cc(OC)c(OC)c4Oc4ccc(cc4)CC3N(C)CC2)CCN1C (configuration not stated),,,,,30.8,,35.2,,49.2,,28,,27.2,,> 100,,,55.5,,
CC(=O)OCC(OC(C)=O)C(OC(C)=O)C(OC(C)=O)C(=O)CNn1c(-c2ccccc2Cl)nc2ccc(Br)cc2c1=O (configuration not stated),,,,,> 100,,> 100,,> 100,,,,> 100,,> 100,,,,,
C=C1C(=O)O[C@H]2[C@H]1CC/C(COC(=O)/C=C/c1c[nH]c3ccccc13)=C\CC[C@@]1(C)O[C@@H]21,0.23,0.357,12.2,0.212,0.528,0.195,0.416,0.17,0.428,,,0.185,0.425,0.202,0.545,0.353,2.92,0.702,0.205,0.626
CC(=O)NS(=O)(=O)c1ccc(-n2nc(-c3ccccc3)cc2C2=CC(=O)C=CC2=O)cc1,> 100,,,> 100,> 100,> 100,> 100,,,,,33.5,> 100,> 100,> 100,22.3,> 100,> 100,> 100,> 100
CCCCCCCCCCCCCCC(O)C1CCC(C(O)CCC(O)CCCCCC(O)CC2=CC(C)OC2=O)O1 (configuration not stated),,,,,20.9,,8.68,,8.88,,4.94,,11.1,,,,,7.27,,
Cc1cc(Cl)ccc1NC(=O)CCCC(=O)C(C(=O)c1ccccc1)c1ccccc1 (configuration not stated),,,,,> 100,,> 100,,,,> 100,,,,> 100,,,,,
C[C@@H](c1ccccc1)N(CC#N)C1CCC[C@H]1O (some centres not stated),,,,,> 100,,> 100,,> 100,,> 100,,> 100,,> 100,,,> 100,,
CC(C)(O)CCC(O)C(C)(O)C1CCC2(O)C3=CC(=O)C4(O)CC(O)C(O)CC4(C)C3CCC12C (configuration not stated) (tested in a mixture with another compound),,,> 100,,> 100,,> 100,,> 100,,,,> 100,,> 100,,> 100,> 100,,> 100
O=C(O)c1oc2cccc3c2c1CCC3,,,,,> 100,,> 100,,> 100,,> 100,,> 100,,> 100,,,,,
O=C1C2=C(c3ccccc31)C(c1ccc(Cl)cc1)NC(=S)N2 (configuration not stated),,,,,33.6,,90.7,,34,,,,28.3,,> 100,,,67.7,,
S=c1[nH]nc(SCc2ccccc2Cl)c2[nH]cnc12,,,> 100,,> 100,,> 100,,> 100,,,,> 100,,> 100,,> 100,> 100,,> 100
CC(C)=CCC/C(C)=C/[C@H]1OC(=O)CC12C[C@H](O)C=CC2=O (some centres not stated),,0.553,2.47,0.752,2.03,0.469,,1.64,4.2,0.221,0.448,0.323,1.21,,,1.81,5.02,,0.194,0.692
Cc1ccc(S(=O)(=O)c2ccsc2N)cc1,45.9,> 100,> 100,> 100,> 100,> 100,> 100,,,> 100,> 100,> 100,> 100,> 100,> 100,> 100,> 100,> 100,> 100,> 100
C[C@H]1CCC/C=C/[C@@H]2C[C@H](O)C[C@H]2[C@H](O)[C@@H](SC2OC(CO)C(O)C(O)C2O)CC(=O)O1 (some centres not stated),36.2,43.3,> 100,> 100,> 100,23,58.8,53.2,> 100,> 100,> 100,> 100,> 100,> 100,> 100,,,> 100,> 100,> 100

SMILES,GI50 (NCI-H226 lung) [µM],GI50 (NCI/ADR-RES ovarian) [µM],TGI (NCI/ADR-RES ovarian) [µM],GI50 (U251 CNS) [µM],TGI (U251 CNS) [µM],GI50 (HT29 colon) [µM],TGI (HT29 colon) [µM],GI50 (SNB-75 CNS) [µM],TGI (SNB-75 CNS) [µM],GI50 (HCC-2998 colon) [µM],TGI (HCC-2998 colon) [µM],GI50 (HCT-116 colon) [µM],TGI (HCT-116 colon) [µM],GI50 (ACHN renal) [µM],TGI (ACHN renal) [µM],GI50 (HS 578T breast) [µM],TGI (HS 578T breast) [µM],TGI (NCI-H226 lung) [µM],GI50 (T-47D breast) [µM],TGI (T-47D breast) [µM]
O=C(c1ccccc1)c1ccccc1C(=O)c1ccccc1,52.3,27.4,> 100,39.4,> 100,45.3,> 100,45.5,> 100,32.3,85.3,29.8,> 100,45.7,> 100,,,> 100,47.2,> 100
O=C1NC(O)CCN1C1CC(O)C(CO)O1 (configuration not stated),,,> 100,,> 100,,,,,,> 100,,> 100,,> 100,,> 100,> 100,,> 100
c1ccc(COc2cccc3cccnc23)cc1,,,,,,,> 100,,> 100,,> 100,,> 100,,> 100,,,> 100,,
O=C1C2=C(c3ccccc31)C(c1ccc(F)cc1)N1C(=O)CCSC1=N2 (configuration not stated),,,,,> 100,,> 100,,> 100,,> 100,,> 100,,> 100,,,> 100,,
COC(=O)/C(=N/O)C(C(=O)OC)C(=O)C(=O)Nc1c(Cl)cc(C)cc1S(=O)(=O)O (configuration not stated),,,,,> 100,,> 100,,> 100,,> 100,,> 100,,> 100,,,> 100,,
N[C@H](C(=O)O)[C@@H](Cl)CC(=O)O,,,,,> 100,,> 100,,> 100,,> 100,,> 100,,> 100,,,> 100,,
COC(=O)c1nn(C(=N)c2ccc(Cl)cc2)c2c1CCCCC2,,,,,> 100,,> 100,,> 100,,> 100,,> 100,,> 100,,,> 100,,
O=C(Nc1ccccc1C(=O)O)C(=O)C(C(=O)c1ccccc1-c1ccccc1)C1OC(=O)c2ccccc21 (configuration not stated),,,,,28.9,,65.9,,53.5,,30.6,,36.5,,92.3,,,29.3,,
CCOC(=O)NC(=O)c1cn(C2OC(CO)C(O)C2O)c(=O)[nH]c1=O (configuration not stated),,,,,> 100,,> 100,,> 100,,> 100,,> 100,,> 100,,,> 100,,
[N-]=[N+]=Nc1c(Br)c(=O)[nH]c(=O)n1COCCO,,,,,> 100,,> 100,,> 100,,> 100,,> 100,,> 100,,,,,
N=C1C(c2nc(-c3ccc(Br)cc3)cs2)=C(O)CN1CC1CCCO1 (configuration not stated),> 100,> 100,> 100,> 100,> 100,> 100,> 100,7.13,> 100,> 100,> 100,,,> 100,> 100,,,> 100,> 100,> 100
CN/N=C(\C(=O)Nc1ccc([N+](=O)[O-])cc1[N+](=O)[O-])C1NC(=O)NC1=O (configuration not stated),,,,,96.1,,> 100,,> 100,,> 100,,> 100,,> 100,,,> 100,,
CNC(C)Cc1ccc(O)cc1 (configuration not stated),,,,,> 100,,> 100,,> 100,,> 100,,> 100,,> 100,,,> 100,,
COc1cc(C(=O)C/C(CCC(=O)Nc2ccc(Cl)cc2Cl)=N/Nc2nnc(C)n2N)ccc1O,,,,,> 100,,> 100,,> 100,,> 100,,> 100,,> 100,,,> 100,,
COc1cc(CNC(=O)CCSc2nc3ccccc3c(=O)n2Cc2cc(OC)c(OC)c(OC)c2)cc(OC)c1OC,14.6,3.59,30.9,5.34,59.5,,,2.06,12.9,13,94.6,3.76,13.3,8.09,> 100,5.24,> 100,> 100,5.52,34
COc1ccc(/C=C/c2cnc3ccccc3n2)cc1OC,,,> 100,,> 100,,> 100,,> 100,,,,> 100,,> 100,,> 100,> 100,,> 100
COc1cc(/C=C\c2cc(OC)c(OC)c(OC)c2)cc(NS(=O)(=O)c2cccc(Cl)c2)c1OC,0.311,,,0.0482,> 100,0.0441,> 100,0.0298,> 100,0.313,60.6,0.0368,> 100,0.109,> 100,0.0795,> 100,> 100,39.5,> 100
COC(=O)C12C3C4C1C1C2C3C41C(=O)N(C(C)C)C(C)C (configuration not stated),,,,,> 100,,> 100,,> 100,,> 100,,> 100,,> 100,,,> 100,,
Cc1cccc(O)c(=O)c1,,,,,> 100,,> 100,,> 100,,> 100,,> 100,,> 100,,,29.3,,
COC(=O)C1=C(c2cc(OC)c(OC)c(OC)c2)O[C@H](c2ccc3c(c2)OCO3)[C@H]1COC(C)=O,,,,,63.5,,95.7,,> 100,,> 100,,,,92.1,,,> 100,,

# Source: PubChem BioAssay (NCI)
